Laboratory results taken from PubChem BioAssay AID1963967 (Molecular Pharmacology Branch, DTP, NCI, 2024).

System: 855422-203-R-J1-PDC spheroids with HUVEC/MSC, viability
Assay: Anticancer human tumor 855422-203-R-J1-PDC patient-derived bladder carcinoma cell line growth inhibition [PI3K]
Conditions: for IC50: curve of first compound; for viability, T/C: stronger effect = lower value; active means viability on the fitted dose curve at most 10% of control; inactive means the rest
Outline: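 Complex 3D spheroids (cancer cells + endothelial HUVEC + mesenchymal stem cells); drug pairs of targeted agent x inavolisib/alpelisib/duvelisib/copanlisib; half-log series from ~Cmax, max 10 microM if Cmax unknown; endpoint viability.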

[1] = second compound 0.00316 µM, first compound 0.000316 µM
[2] = second compound 0.00316 µM, first compound 0.001 µM
[3] = second compound 0.00316 µM, first compound 0.00316 µM
[4] = second compound 0.00316 µM, first compound 0.01 µM
[5] = second compound 0.00316 µM, first compound 0.0316 µM
[6] = second compound 0.00316 µM, first compound 0.1 µM
[7] = second compound 0.01 µM, first compound 0.000316 µM
[8] = second compound 0.01 µM, first compound 0.001 µM
[9] = second compound 0.01 µM, first compound 0.00316 µM
[10] = second compound 0.01 µM, first compound 0.01 µM
[11] = second compound 0.01 µM, first compound 0.0316 µM
[12] = second compound 0.01 µM, first compound 0.1 µM
[13] = second compound 0.0316 µM, first compound 0.000316 µM
[14] = second compound 0.0316 µM, first compound 0.001 µM
[15] = second compound 0.0316 µM, first compound 0.00316 µM
[16] = second compound 0.0316 µM, first compound 0.01 µM
[17] = second compound 0.0316 µM, first compound 0.0316 µM
[18] = second compound 0.0316 µM, first compound 0.1 µM
[19] = second compound 0.1 µM, first compound 0.000316 µM
[20] = second compound 0.1 µM, first compound 0.001 µM
[21] = second compound 0.1 µM, first compound 0.00316 µM
[22] = second compound 0.1 µM, first compound 0.01 µM
[23] = second compound 0.1 µM, first compound 0.0316 µM
[24] = second compound 0.1 µM, first compound 0.1 µM
[25] = second compound 0.316 µM, first compound 0.000316 µM
[26] = second compound 0.316 µM, first compound 0.001 µM
[27] = second compound 0.316 µM, first compound 0.00316 µM
[28] = second compound 0.316 µM, first compound 0.01 µM
[29] = second compound 0.316 µM, first compound 0.0316 µM
[30] = second compound 0.316 µM, first compound 0.1 µM
[31] = second compound 1 µM, first compound 0.000316 µM
[32] = second compound 1 µM, first compound 0.001 µM
[33] = second compound 1 µM, first compound 0.00316 µM
[34] = second compound 1 µM, first compound 0.01 µM
[35] = second compound 1 µM, first compound 0.0316 µM
[36] = second compound 1 µM, first compound 0.1 µM
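Further: agents incubated with spheroids for one week before read-out.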
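Wherever viability, T/C is given: 100% = DMSO vehicle-treated control wells.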

Cn1ncnc1[C@H]1c2n[nH]c(=O)c3cc(F)cc(c23)N[C@@H]1c1ccc(F)cc1 + CC(Nc1ccc2c(c1)OCCn1cc(N3C(=O)OCC3C(F)F)nc1-2)C(N)=O
inactive: viability, T/C [1] 104% | viability, T/C [2] 91.8% | viability, T/C [3] 107% | viability, T/C [4] 87.5% | viability, T/C [5] 97.8% | viability, T/C [6] 109% | viability, T/C [7] 114% | viability, T/C [8] 92.5% | viability, T/C [9] 97% | viability, T/C [10] 99.4% | viability, T/C [11] 100% | viability, T/C [12] 104% | viability, T/C [13] 96.4% | viability, T/C [14] 92.3% | viability, T/C [15] 90.6% | viability, T/C [16] 88.3% | viability, T/C [17] 96% | viability, T/C [18] 91.8% | viability, T/C [19] 74.7% | viability, T/C [20] 72.9% | viability, T/C [21] 55.5% | viability, T/C [22] 69% | viability, T/C [23] 78% | viability, T/C [24] 80.8% | viability, T/C [25] 56.4% | viability, T/C [26] 56% | viability, T/C [27] 42.4% | viability, T/C [28] 56.1% | viability, T/C [29] 54.6% | viability, T/C [30] 40.7% | viability, T/C [31] 39.1% | viability, T/C [32] 36.7% | viability, T/C [33] 35.7% | viability, T/C [34] 35.6% | viability, T/C [35] 33.5% | viability, T/C [36] 27.2%
< 0.316 nM: IC50 (second compound 1 µM)
11.2 nM: IC50 (second compound 0.316 µM)
> 100 nM: IC50 (second compound 0.00316 µM) | IC50 (second compound 0.01 µM) | IC50 (second compound 0.0316 µM) | IC50 (second compound 0.1 µM)

CCN1CCN(Cc2ccc(Nc3ncc(F)c(-c4cc(F)c5nc(C)n(C(C)C)c5c4)n3)nc2)CC1 + COc1c(OCCCN2CCOCC2)ccc2c3n(c(=NC(=O)c4cnc(N)nc4)nc12)CCN3
inactive: viability, T/C [3] 95.2% | viability, T/C [4] 77.9% | viability, T/C [5] 103% | viability, T/C [6] 82.6% | viability, T/C (second compound 0.00316 µM, first compound 0.316 µM) 77.6% | viability, T/C (second compound 0.00316 µM, first compound 1 µM) 60.5% | viability, T/C [9] 87.8% | viability, T/C [10] 89.9% | viability, T/C [11] 85.2% | viability, T/C [12] 71.1% | viability, T/C (second compound 0.01 µM, first compound 0.316 µM) 52.9% | viability, T/C (second compound 0.01 µM, first compound 1 µM) 41.6% | viability, T/C [15] 64.8% | viability, T/C [16] 67.6% | viability, T/C [17] 52.7% | viability, T/C [18] 45.7% | viability, T/C (second compound 0.0316 µM, first compound 0.316 µM) 26.7% | viability, T/C (second compound 0.0316 µM, first compound 1 µM) 20.6% | viability, T/C [21] 28.9% | viability, T/C [22] 29.3% | viability, T/C [23] 22.7% | viability, T/C [24] 15.6% | viability, T/C (second compound 0.1 µM, first compound 0.316 µM) 12.2% | viability, T/C (second compound 0.1 µM, first compound 1 µM) 13.9% | viability, T/C [27] 11.5%
active: viability, T/C [28] 9.97% | viability, T/C [29] 8.87% | viability, T/C [30] 7.84% | viability, T/C (second compound 0.316 µM, first compound 0.316 µM) 8.06% | viability, T/C (second compound 0.316 µM, first compound 1 µM) 8.7% | viability, T/C [33] 4.05% | viability, T/C [34] 5.98% | viability, T/C [35] 4.02% | viability, T/C [36] 4.36% | viability, T/C (second compound 1 µM, first compound 0.316 µM) 4.5% | viability, T/C (second compound 1 µM, first compound 1 µM) 5.49%
55 nM: IC50 (second compound 0.0316 µM)
> 1000 nM: IC50 (second compound 0.00316 µM)
< 3.16 nM: IC50 (second compound 0.1 µM) | IC50 (second compound 0.316 µM) | IC50 (second compound 1 µM)
409 nM: IC50 (second compound 0.01 µM)

CC(=O)c1c(C)c2cnc(Nc3ccc(N4CCNCC4)cn3)nc2n(C2CCCC2)c1=O + COc1c(OCCCN2CCOCC2)ccc2c3n(c(=NC(=O)c4cnc(N)nc4)nc12)CCN3
active: viability, T/C [26] 7.97% | viability, T/C [27] 9.28% | viability, T/C [28] 8.98% | viability, T/C [29] 6.22% | viability, T/C [30] 5.08% | viability, T/C [31] 3.62% | viability, T/C [32] 4.81% | viability, T/C [33] 3.28% | viability, T/C [34] 3.47% | viability, T/C [35] 4.56% | viability, T/C [36] 3.64%
> 100 nM: IC50 (second compound 0.00316 µM) | IC50 (second compound 0.01 µM)
18.9 nM: IC50 (second compound 0.0316 µM)
inactive: viability, T/C [1] 91.7% | viability, T/C [2] 101% | viability, T/C [3] 95.2% | viability, T/C [4] 98.3% | viability, T/C [5] 90.5% | viability, T/C [6] 73.5% | viability, T/C [7] 83.1% | viability, T/C [8] 88.4% | viability, T/C [9] 88.2% | viability, T/C [10] 84.7% | viability, T/C [11] 86.6% | viability, T/C [12] 56.5% | viability, T/C [13] 67.9% | viability, T/C [14] 63.5% | viability, T/C [15] 58.4% | viability, T/C [16] 55.2% | viability, T/C [17] 47.6% | viability, T/C [18] 26.9% | viability, T/C [19] 26.8% | viability, T/C [20] 27.5% | viability, T/C [21] 22.6% | viability, T/C [22] 25.4% | viability, T/C [23] 20% | viability, T/C [24] 12.1% | viability, T/C [25] 10.4%
< 0.316 nM: IC50 (second compound 0.1 µM) | IC50 (second compound 0.316 µM) | IC50 (second compound 1 µM)
